Measured values from US20150139971A1, “METHOD FOR PREPARING REGULATORY DENDRITIC CELLS” (NIPPON KAYAKU KABUSHIKI KAISHA, priority 2010, published 2015).

Key:
[1] = system: dendritic cells derived from C57BL/6 mouse bone marrow cells; assay: Expression of costimulatory molecules CD40, CD80, CD86 by flow cytometry (MFI) on matured dendritic cells; format: cell-based
Procedure: (§1) The C57BL/6 mouse bone marrow cells were cultured for 7 days in 10% FCS-RPMI1640 medium containing 20 ng/mL GM-CSF (Peprotech, origin: rabbit) and 20 ng/mL IL-4 (Peprotech, origin: rabbit) so as to cause the cells to differentiate into dendritic cells. Subsequently, 20 ng/mL TNF-α (Peprotech, origin: rabbit) was added for maturation. Treatment with NK026680 was performed by adding 50 ng/mL NK026680 on days 2 and 4 of culture and adding 250 ng/mL NK026680 on day 6 of culture.
The BALB/c mouse-derived spleen cell extract was added to dendritic cells derived from bone marrow cells which were collected from the C57BL/6 mouse, thereby causing cells to present a BALB/c antigen. The effect of incorporating the BALB/c antigen was confirmed by measuring the expression of 1-Ad (antibody: BD pharmingen), which is a BALB/c major histocompatibility complex (MHC), by flow cytometry. At this time, cells were cultured in the presence or the absence of NK026680, and the cells were allowed to mature with TNF-α (Peprotech, origin: rabbit). Maturation of dendritic cells was confirmed by flow cytometric analysis of the expression of the mature dendritic cell marker. Fluorescence-labeled antibodies against CD40, CD80 and CD86 costimulatory molecules were reacted in NK026680-treated dendritic cells (NK-DC) of the present invention and untreated dendritic cells (CTR-DC). Mean fluorescence intensity (MFI) was measured by flow cytometry, so that the expression levels of CD40, CD80, and CD86 were compared.

[2] = system: dendritic cells derived from C57BL/6 mouse bone marrow cells; assay: IL-6 and IL-12p40 in culture supernatant of dendritic cells by ELISA; format: cell-based
Procedure: as §1
In this Example 2, in a manner similar to that in Example 1, the dendritic cells of the present invention treated with NK026680 and untreated dendritic cells, which had been obtained by differentiation and maturation of C57BL/6 mouse bone marrow cells, were obtained. After stimulation with TNF, cells were cultured for 24 hours. The thus obtained culture supernatant was collected, and then the concentrations of immune-response-stimulating cytokines, IL-6 and IL-12p40, were measured by ELISA (BD bioscience) (n=3).

dendritic cells = dendritic cells cultured in the presence of the compound; cited from earlier work
[3] = system: graft-versus-host disease model; details: Non-patent Document 5; cited from earlier work
[4] = system: autoimmune angiitis model; details: Non-patent Document 6; cited from earlier work

COc1ccc(-c2ccnc3nc(NC(=O)N[C@@H](C)CCCC(C)(C)O)nn23)cc1 [NK026680, (S)-(+)-1-(5-hydroxy-1,5-dimethylhexyl)-3-[7-(4-methoxyphenyl)-[1,2,4]triazolo[1,5-a]pyrimidin-2-yl]urea]
CD40 (MFI) ([1]; NK026680 50 ng/mL on days 2 and 4, 250 ng/mL on day 6, BALB/c antigen, matured with TNF-α, untreated cells 244): 159 MFI
CD86 (MFI) ([1]; NK026680 50 ng/mL on days 2 and 4, 250 ng/mL on day 6, BALB/c antigen, matured with TNF-α, untreated cells 356): 217 MFI
CD80 (MFI) ([1]; NK026680 50 ng/mL on days 2 and 4, 250 ng/mL on day 6, BALB/c antigen, matured with TNF-α, untreated cells 659): 320 MFI
expression levels of CD40, CD80 and CD86 compared with untreated dendritic cells (CTR-DC) ([1]; in words): lower
IL-6 ([2]; culture supernatant 24 hours after TNF stimulation, n=3, untreated cells 1235 ± 272): 219 ± 94 pg/mL
IL-12p40 ([2]; culture supernatant 24 hours after TNF stimulation, n=3, untreated cells 1555 ± 650): 347 ± 100 pg/mL
concentrations of IL-6 and IL-12p40 in culture supernatant compared with untreated dendritic cells ([2]; in words): lower
expression level of a costimulatory molecule (dendritic cells): decreased
effects against a graft-versus-host disease model [3]: exhibited effects
effects against an autoimmune angiitis model [4]: exhibited effects
